Patent US20250326744A1, “PIPERAZINE DERIVATIVE OR SALT THEREOF, AND PHARMACEUTICAL COMPOSITION” (priority 2022, published 2025)
Counter-ions that a name gives are not always drawn.

Legend:
mexB (PA) strain = assay: Combinational effect with antibacterial agent against Pseudomonas aeruginosa (Test Examples 2 and 4): mexB (PA) strain with LVFX, TC or AZT at 1/4 MIC, EC99; type: cell-based; conditions: for EC99, combinational effect with AZT, mexB (PA) / EC99, combinational effect with LVFX, mexB (PA) / EC99, combinational effect with TC, mexB (PA): mexB (PA) strain, Test Example 4; for EC99, combinational effect with AZT, mexB (PA) / EC99, mexB (PA), AZT: combined with AZT at 1/4 MIC; for EC99, combinational effect with LVFX, mexB (PA) / EC99, mexB (PA), LVFX: combined with LVFX at 1/4 MIC; for EC99, combinational effect with TC, mexB (PA) / EC99, mexB (PA), TC: combined with TC at 1/4 MIC; for EC99, mexB (PA), AZT / EC99, mexB (PA), LVFX / EC99, mexB (PA), TC: Table 52, Test Example 2, 16 to 20 hours culture, OD595
Procedure, shortened: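 P. aeruginosa mexB (PA) strain, lacking MexCD-OprJ, MexEF-OprN and MexXY and overexpressing MexAB-OprM, grown 16–20 h in CAMHB (10^4–5 CFU/well) with LVFX, TC or AZT at ¼ MIC plus test compound at 0–800 μM. Growth read as OD595; EC99 is the lowest compound concentration giving ≥99% growth inhibition.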

S-3769 strain = assay: Combinational effect with antibacterial agent against Pseudomonas aeruginosa (Test Examples 2 and 4): S-3769 strain with AMK or GM at 1/4 MIC, EC99; type: cell-based; conditions: for EC99, combinational effect with AMK, S-3769 strain / EC99, S-3769 strain, AMK: combined with AMK at 1/4 MIC; for EC99, combinational effect with AMK, S-3769 strain / EC99, combinational effect with GM, S-3769 strain: Test Example 4; for EC99, combinational effect with GM, S-3769 strain / EC99, S-3769 strain, GM: combined with GM at 1/4 MIC; for EC99, S-3769 strain, AMK / EC99, S-3769 strain, GM: Table 52, Test Example 2, 16 to 20 hours culture, OD595
Procedure, shortened: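 P. aeruginosa S-3769 (clinical isolate, MexY overexpressed) grown 16–20 h in CAMHB, 10^4 to 5 CFU/well, with AMK or GM at ¼ MIC plus test compound 0–800 μM. Growth read as OD595; EC99 is the lowest compound concentration giving ≥99% growth inhibition.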

Structure (SMILES) | EC99, combinational effect with AZT, mexB (PA) (mexB (PA) strain) | EC99, combinational effect with LVFX, mexB (PA) (mexB (PA) strain) | EC99, combinational effect with TC, mexB (PA) (mexB (PA) strain) | EC99, combinational effect with AMK, S-3769 strain (S-3769 strain) | EC99, combinational effect with GM, S-3769 strain (S-3769 strain) | EC99, mexB (PA), AZT (mexB (PA) strain) | EC99, mexB (PA), LVFX (mexB (PA) strain) | EC99, mexB (PA), TC (mexB (PA) strain) | EC99, S-3769 strain, AMK (S-3769 strain) | EC99, S-3769 strain, GM (S-3769 strain)
CCOc1cccc(F)c1CN1CCN(C(=O)[C@H](N)C2CCN(CCc3ccc(O)cc3-c3ccccc3)CC2)CC1 [Example 625, Hydrochloride of (R)-2-amino-1-(4-(2-ethoxy-6-fluorobenzyl)piperazin-1-yl)-2-(1-(2-(5-hydroxy-[1,1-biphenyl]-2-yl)ethyl)piperidin-4-yl)ethan-1-one] | C (100 μM<EC99) | C (100 μM<EC99) | C (100 μM<EC99) | A (12.5 μM<EC99≤25 μM) | A (12.5 μM<EC99≤25 μM) |  |  |  |  | 
CCOc1ccc(F)c(F)c1CN1CCN(C(=O)[C@H](N)C2CCN(CCc3cc(Cl)ccc3-c3ccccc3)CC2)CC1 [Example 35, Hydrobromide of (R)-2-amino-2-(1-(2-(4-chloro-[1,1′-biphenyl]-2-yl)ethyl)piperidin-4-yl)-1-(4-(6-ethoxy-2,3-difluorobenzyl)piperazin-1-yl)ethan-1-one] |  |  |  |  |  | B (25 μM<EC99≤100 μM) | C (100 μM<EC99) | B (25 μM<EC99≤100 μM) | S (EC99≤12.5 μM) | S (EC99≤12.5 μM)
CCSc1cc(F)ccc1CN1CCN(C(=O)[C@H](N)C2CCN(CCc3cc(Cl)ccc3-c3cc(O)ccc3F)CC2)CC1 [Example 615, (R)-2-amino-2-(1-(2-(4-chloro-2′-fluoro-5′-hydroxy-[1,1′-biphenyl]-2-yl)ethyl)piperidin-4-yl)-1-(4-(2-(ethylthio)-4-fluorobenzyl)piperazin-1-yl)ethan-1-one] | S (EC99≤12.5 μM) | S (EC99≤12.5 μM) | S (EC99≤12.5 μM) | S (EC99≤12.5 μM) | S (EC99≤12.5 μM) |  |  |  |  | 
CCOc1cccc(F)c1CN1CCN(C(=O)[C@H](N)C2CCN(CCc3cc(C(F)(F)F)ccc3-c3ccccc3)CC2)CC1 [Example 83, Hydrobromide of (R)-2-amino-1-(4-(2-ethoxy-6-fluorobenzyl)piperazin-1-yl)-2-(1-(2-(4-(trifuluoromethyl)-[1,1′-biphenyl]-2-yl)ethyl)piperidin-4-yl) ethan-1-one] |  |  |  |  |  | B (25 μM<EC99≤100 μM) | B (25 μM<EC99≤100 μM) | B (25 μM<EC99≤100 μM) | B (25 μM<EC99≤100 μM) | B (25 μM<EC99≤100 μM)
CSc1ccccc1CN1CCN(C(=O)[C@H](N)C2CCN(CCc3cc(Cl)ccc3-c3cc(O)ccc3F)CC2)CC1 [Example 612, (R)-2-amino-2-(1-(2-(4-chloro-2′-fluoro-5′-hydroxy-[1,1′-biphenyl]-2-yl)ethyl)piperidin-4-yl)-1-(4-(2-(methylthio)benzyl)piperazin-1-yl)ethan-1-one] | S (EC99≤12.5 μM) | S (EC99≤12.5 μM) | S (EC99≤12.5 μM) | S (EC99≤12.5 μM) | S (EC99≤12.5 μM) |  |  |  |  | 
CCSc1cc(F)ccc1CN1CCN(C(=O)[C@H](N)C2CCN(CCc3cc(Cl)ccc3-c3cc(O)cc(F)c3)CC2)CC1 [Example 609, (R)-2-amino-2-(1-(2-(4-chloro-3′-fluoro-5′-hydroxy-[1,1′-biphenyl]-2-yl)ethyl)piperidin-4-yl)-1-(4-(2-(ethylthio)-4-fluorobenzyl)piperazin-1-yl)ethan-1-one] | S (EC99≤12.5 μM) | S (EC99≤12.5 μM) | S (EC99≤12.5 μM) | S (EC99≤12.5 μM) | S (EC99≤12.5 μM) |  |  |  |  | 
CCOc1cccc(F)c1CN1CCN(C(=O)[C@H](N)C2CCN(CCc3cc(Cl)ccc3-c3ccccc3OC)CC2)CC1 [Example 76, Hydrobromide of (R.)-2-amino-2-(1-(2-(4-chloro-2′-methoxy-[1,1′-biphenyl]-2-yl)ethyl)piperidin-4-yl)-1-(4-(2-ethoxy-6-fluorobenzyl)piperazin-1-yl)ethan-1-one] |  |  |  |  |  | A (12.5 μM<EC99≤25 μM) | B (25 μM<EC99≤100 μM) | B (25 μM<EC99≤100 μM) | A (12.5 μM<EC99≤25 μM) | A (12.5 μM<EC99≤25 μM)
CCOc1cccc(F)c1CN1CCN(C(=O)[C@H](N)C2CCN(CCc3cc(Cl)ccc3-c3cccc(N)c3)CC2)CC1 [Example 99, Hydrobromide of (R)-2-amino-2-(1-(2-(3′-amino-4-chloro-[1,1′-biphenyl]-2-yl)ethyl)piperidin-4-yl)-1-(4-(2-ethoxy-6-fluorobenzyl)piperazin-1-yl)ethan-1-one] |  |  |  |  |  | B (25 μM<EC99≤100 μM) | A (12.5 μM<EC99≤25 μM) | A (12.5 μM<EC99≤25 μM) | S (EC99≤12.5 μM) | S (EC99≤12.5 μM)
N[C@@H](C(=O)N1CCN(Cc2c(F)cccc2OCC(F)F)CC1)C1CCN(CCc2cc(Cl)ccc2-c2ccccc2)CC1 [Example 18, Hydrobromide of (R)-2-amino-2-(1-(2-(4-chloro-[1,1′-biphenyl]-2-yl)ethyl)piperidin-4-yl)-1-(4-(2-(2,2-difluoroethoxy)-6-fluorobenzyl)piperazin-1-yl)ethan-1-one] |  |  |  |  |  | B (25 μM<EC99≤100 μM) | B (25 μM<EC99≤100 μM) | B (25 μM<EC99≤100 μM) | A (12.5 μM<EC99≤25 μM) | A (12.5 μM<EC99≤25 μM)
CCOc1cccc(F)c1CN1CCN(C(=O)[C@H](N)C2CC[N+](C)(CCc3cc(Cl)ccc3-c3ccccc3)CC2)CC1 (stereo partly drawn) [Example 568, Hydrobromide of (R)-4-(1-amino-2-(4-(2-ethoxy-6-fluorobenzyl)piperazin-1-yl)-2-oxoethyl)-1-(2-(4-chloro-[1,1-biphenyl]-2-yl)ethyl)-1-methylpiperidin-1-ium bromide] | C (100 μM<EC99) | C (100 μM<EC99) | C (100 μM<EC99) | S (EC99≤12.5 μM) | S (EC99≤12.5 μM) |  |  |  |  | 
CCOc1cccc(F)c1CN1CCN(C(=O)[C@H](N)C2CCN(CCc3cc(Cl)ccc3-c3cccc(S(F)(F)(F)(F)F)c3)CC2)CC1 [Example 57, Hydrobromide of (R)-2-amino-2-(1-(2-(4-chloro-3′-(pentafluoro-λ6-sulfanyl)-[1,1′-biphenyl]-2-yl)ethyl)piperidin-4-yl)-1-(4-(2-ethoxy-6-fluorobenzyl)piperazin-1-yl) ethan-1-one] |  |  |  |  |  | C (100 μM<EC99) | C (100 μM<EC99) | B (25 μM<EC99≤100 μM) | B (25 μM<EC99≤100 μM) | B (25 μM<EC99≤100 μM)
CCOc1cccc(F)c1CN1CCN(C(=O)[C@H](N)C2CCN(CCc3cc(Cl)ccc3-c3c(O)cccc3F)CC2)CC1 [Example 578, Hydrochloride of (2R)-2-amino-2-(1-(2-(4-chloro-2′-fluoro-6′-hydroxy-[1,1-biphenyl]-2-yl)ethyl)piperidin-4-yl)-1-(4-(2-ethoxy-6-fluorobenzyl)piperazin-1-yl) ethan-1-one] | B (25 μM<EC99≤100 μM) | A (12.5 μM<EC99≤25 μM) | B (25 μM<EC99≤100 μM) | B (25 μM<EC99≤100 μM) | B (25 μM<EC99≤100 μM) |  |  |  |  | 
